Read-outs that look alike come from different tables or passages of the source.
Assays:
GVS hygroscopicity = type: physicochemical
Source text: The instruments and methods of analysis used in the polymorph screens described in Examples 5 are described in Example 4, above.

[1] = Isothermic (25° C.) DVS analysis of salts of the compound of Formula I; type: physicochemical
Source text: (FIG. 16D). […] Some hysteresis was observed. […] (FIG. 16C). […] (FIG. 16D).
(FIG. 18A). […] (FIG. 18B). […] Some hysteresis was observed. […] An overlay of FTIR spectra of the L- and D-malic acid salts is shown in FIG. 18F. ^1H NMR spectra of the L- and D-malic salts in DMSO-d^6 are shown in FIG. 18G-18H, respectively.

[2] = Second solubility study of the L-malic acid salt at elevated temperatures (60° C., 70° C.); type: physicochemical; details: for Solids dissolve at 70° C.?: 70° C. for approximately 3.0 hours
[3] = Solubility test of the L-malic acid salt at room temperature; type: physicochemical; details: DMSO, two lots
[4] = Stability screening of freebase and selected salts of Formula I, 40° C. and 75% RH, weekly HPLC over 4 weeks
[5] = Solvent solubility screen of the compound of Formula II; type: physicochemical; details: 40 °C, thermodynamic from solid, read-out: Approximate solubility
Description: A solvent solubility screen was conducted in 32 solvent systems as follows.
Between each addition, the mixture was checked for dissolution. If no dissolution was apparent, the mixture was heated to around 40° C. and checked again. This procedure was continued until dissolution was observed or until 100 volumes of solvent had been added. Undissolved material from the solubility screen was isolated and analyzed by XRPD.

[6] = Dynamic vapor sorption (DVS) of the compound of Formula II; type: physicochemical
Description: Approximately 10 mg of sample was placed into a mesh vapor sorption balance pan and loaded into a DVS-1 dynamic vapor sorption balance by Surface Measurement Systems. The sample was subjected to a ramping profile from 40-90% relative humidity (RH) at 10% increments, maintaining the sample at each step until a stable weight had been achieved (99.5% step completion). After completion of the sorption cycle, the sample was dried using the same procedure to 0% RH and then a second sorption cycle back to 40% RH. The weight change during the sorption/desorption cycles were plotted, allowing for the hygroscopic nature of the sample to be determined. XRPD analysis was then carried out on any solid retained.
The material appeared highly crystalline by XRPD (FIG. 62A). […] This event was followed by thermal degradation. […] (FIG. 62B).

## COc1ccc(CN2C3CC2CN(c2ccc(-c4cc(OCC(C)(C)O)cn5ncc(C#N)c45)cn2)C3)cn1 [Form 1]
GVS hygroscopicity
  Hygroscopicity by GVS (in words): moderately hygroscopic
GVS hygroscopicity; at 90% RH
  Weight increase by GVS: 2.6%

## COc1ccc(CN2CCN(c3ccc(-c4cc(-c5cnn(C)c5)cn5ncc(C#N)c45)cn3)CC2)cn1.O=C(O)C[C@H](O)C(=O)O [L-malic acid salt]
[1]; 80% relative humidity, 25° C.
  Mass gain by DVS: approximately 2.8%
[1]; isothermic 25° C.
  Hygroscopicity by DVS (in words): hygroscopic
[1]; sample remained a free-flowing powder
  Deliquescence upon removal from the DVS chamber: no observable deliquescence
[2]; 60° C. for 3.0 hours, solvent 0.1M HCl, Yes
  Solids dissolve at 60° C.?: Yes (>13.4 mg/mL)
[2]; 60° C. for 3.0 hours, solvent 2-methyl THF
  Solids dissolve at 60° C.?: No
[2]; 60° C. for 3.0 hours, solvent ACN
  Solids dissolve at 60° C.?: No
[2]; 60° C. for 3.0 hours, solvent Acetone
  Solids dissolve at 60° C.?: No
[2]; 60° C. for 3.0 hours, solvent DCE
  Solids dissolve at 60° C.?: No
[2]; 60° C. for 3.0 hours, solvent DMSO, Yes
  Solids dissolve at 60° C.?: Yes (>36 mg/mL)
[2]; 60° C. for 3.0 hours, solvent EtOAc
  Solids dissolve at 60° C.?: No
[2]; 60° C. for 3.0 hours, solvent EtOH
  Solids dissolve at 60° C.?: No
[2]; 60° C. for 3.0 hours, solvent IPA
  Solids dissolve at 60° C.?: No
[2]; 60° C. for 3.0 hours, solvent MEK
  Solids dissolve at 60° C.?: No
[2]; 60° C. for 3.0 hours, solvent MTBE
  Solids dissolve at 60° C.?: No
[2]; 60° C. for 3.0 hours, solvent MeOH
  Solids dissolve at 60° C.?: No
[2]; 60° C. for 3.0 hours, solvent Toluene
  Solids dissolve at 60° C.?: No
[2]; 60° C. for 3.0 hours, solvent iPAc
  Solids dissolve at 60° C.?: No
[2]; 60° C. for 3.0 hours, solvent water
  Solids dissolve at 60° C.?: No
[2]; solvent 2-methyl THF
  Solids dissolve at 70° C.?: No
[2]; solvent ACN
  Solids dissolve at 70° C.?: No
[2]; solvent DCE
  Solids dissolve at 70° C.?: No
[2]; solvent DMSO, Yes
  Solids dissolve at 70° C.?: Yes (>56 mg/mL)
[2]; solvent EtOAc
  Solids dissolve at 70° C.?: No
[2]; solvent EtOH
  Solids dissolve at 70° C.?: No
[2]; solvent IPA
  Solids dissolve at 70° C.?: No
[2]; solvent MEK
  Solids dissolve at 70° C.?: No
[2]; solvent MTBE
  Solids dissolve at 70° C.?: No
[2]; solvent Toluene
  Solids dissolve at 70° C.?: No
[2]; solvent iPAc
  Solids dissolve at 70° C.?: No
[2]; solvent water
  Solids dissolve at 70° C.?: No
[2]; solvent THF, cell says 65° C.
  Solids dissolve at 60° C.?: ~65 °C almost 12.3 mg/mL
[3]
  solubility: 14000 to 15000 µg/mL
[4]; 40° C. and 75% RH, T = 0 to 4 weeks
  Absolute % change: 0.5%
[4]; stored at 40° C. and 75% RH, 1 week
  Stability, HPLC analysis, T = 1 week: 97.7%
[4]; stored at 40° C. and 75% RH, 2 weeks
  Stability, HPLC analysis, T = 2 weeks: 97.4%
[4]; stored at 40° C. and 75% RH, 3 weeks
  Stability, HPLC analysis, T = 3 weeks: 97.4%
[4]; stored at 40° C. and 75% RH, 4 weeks
  Stability, HPLC analysis, T = 4 weeks: 97.3%
[4]; stored at 40° C. and 75% RH, T = 0
  Stability, HPLC analysis, T = 0: 97.8%

## COc1ccc(CN2C3CC2CN(c2ccc(-c4cc(OCC(C)(C)O)cn5ncc(C#N)c45)cn2)C3)cn1 [compound of Formula II, 6-(2-hydroxy-2-methylpropoxy)-4-(6-(6-((6-methoxypyridin-3-yl)methyl)-3,6-diazabicyclo[3.1.1]heptan-3-yl)pyridin-3-yl)pyrazolo[1,5-a]pyridine-3-carbonitrile]
[5]; 1-Butanol, organic solvent or mixture
  solubility: < 5000 µg/mL
[5]; 1-Propanol, organic solvent or mixture
  solubility: < 5000 µg/mL
[5]; organic solvent or mixture, 1,4-Dioxane, (P) partial solubility at 100 volumes
  solubility: < 5000 µg/mL
[5]; organic solvent or mixture, 2-Ethoxyethanol, (P) partial solubility at 100 volumes
  solubility: < 5000 µg/mL
[5]; organic solvent or mixture, 2-Methyl THF, (P) partial solubility at 100 volumes
  solubility: < 5000 µg/mL
[5]; organic solvent or mixture, Anisole, (P) partial solubility at 100 volumes
  solubility: < 5000 µg/mL
[5]; organic solvent or mixture, CHCl3, (P) partial solubility at 100 volumes
  solubility: < 5000 µg/mL
[5]; organic solvent or mixture, Cyclohexanone, (P) partial solubility at 100 volumes
  solubility: < 5000 µg/mL
[5]; organic solvent or mixture, DCM, (P) partial solubility at 100 volumes
  solubility: < 5000 µg/mL
[5]; organic solvent or mixture, Nitromethane, (P) partial solubility at 100 volumes
  solubility: < 5000 µg/mL
[5]; organic solvent or mixture, THF, (P) partial solubility at 100 volumes
  solubility: < 5000 µg/mL
[5]; Acetone, organic solvent or mixture
  solubility: < 5000 µg/mL
[5]; Acetone:Water (50%), aqueous with cosolvent or surfactant or cyclodextrin
  solubility: < 5000 µg/mL
[5]; Cyclohexane, organic solvent or mixture
  solubility: < 5000 µg/mL
[5]; DMSO, organic solvent or mixture
  solubility: 41000 µg/mL
[5]; EtOAc, organic solvent or mixture
  solubility: < 5000 µg/mL
[5]; Ethanol, organic solvent or mixture
  solubility: < 5000 µg/mL
[5]; IPA, organic solvent or mixture
  solubility: < 5000 µg/mL
[5]; MEK, organic solvent or mixture
  solubility: < 5000 µg/mL
[5]; MIBK, organic solvent or mixture
  solubility: < 5000 µg/mL
[5]; MeCN:Water (20%), aqueous with cosolvent or surfactant or cyclodextrin
  solubility: 5000 µg/mL
[5]; MeOAc, organic solvent or mixture
  solubility: < 5000 µg/mL
[5]; NMP, organic solvent or mixture
  solubility: 17000 µg/mL
[5]; THF:Water (1%), organic solvent or mixture
  solubility: 48000 µg/mL
[5]; Water, water
  solubility: < 5000 µg/mL
[6]
  Hygroscopicity by DVS (in words): moderately hygroscopic
[6]; 90% RH
  Weight increase by DVS: around 3.6%
[6]; XRPD after DVS
  Change in Form post-DVS: No change in Form

## COc1ccc(CN2C3CC2CN(c2ccc(-c4cc(OCC(C)(C)O)cn5ncc(C#N)c45)cn2)C3)cn1.O=P(O)(O)O [phosphate salt]
GVS hygroscopicity
  Hygroscopicity by GVS (in words): highly hygroscopic
  Weight increase by GVS: approximately 14%
Ambient temperature and light, 40° C./75% RH, 80° C.
  Form and crystallinity by XRPD after 7-day stability tests: no change in form or crystallinity
Stored 7 days at 40° C./75% RH
  Purity after 7-day stability storage: 97.44%
Stored 7 days at 80° C.
  Purity after 7-day stability storage: 64.96%
Stored 7 days at RT (ambient temperature and light)
  Purity after 7-day stability storage: 98.03%
